Source: patent US11542492B2 (Celgene CAR LLC, priority 2009, dated 2023)
pIC50, pKi: −log10 of the molar value.

Assays:
p110α/p85α (PI3Kα) = biological target: T1, p110α/p85α (PI3Kα) (Homo sapiens, UniProt P42336); test: HTRF assay, p110α/p85α; format: biochemical; settings: read-out: PI3Kα-HTRF-IC50 nM Inhibition Designation
T1 construct: purchased BPS Bioscience or Millipore 40620 (BPS Bioscience) or 14-602 (Millipore)
Method: HTRF Assay Protocol for Potency Assessment Against the Active Form of p110α/p85α:
(§1) The mechanics of the assay platform are best described by the vendor (Millipore, Billerica, Mass.) on their website at the following URL: http://www.millipore.com/coa/tech1/74jt4z.
(§2) Briefly, Stop solution (Stop A, #33-007 and Stop B, #33-009; 3:1 ratio) and Detection Mix (DMC, #33-015 with DMA, #33-011 and DMB, #33-013; 18:1:1 ratio) were prepared as recommended by the manufacturer ˜2 hrs prior to use. […] Lipid kinase reactions were started with the addition of 5 μL of ATP solution, mixed for 15 sec on a rotary plate shaker and incubated for 15-30 minutes at 25° C. Next, reactions were stopped with a 5 μL addition of Stop solution followed by a 5 μL volume of Detection Mix. […] At the conclusion of each assay, the HTRF ratio from fluorescence emission values for each well was calculated and % Inhibition determined from averaged controls wells. % Inhibition values for each compound re then plotted against inhibitor concentration to estimate IC50 from log [Inhibitor] vs Response, Variable Slope model in GraphPad Prism from GraphPad Software (San Diego, Calif.).

HCT116 = test: HCT116-WB assay; format: cell-based; settings: Homo sapiens, HCT-116; read-out: HCT116-WB Inhibition Designation
p120γ (PI3Kγ) = biological target: T2, p120γ (PI3Kγ) (Homo sapiens, UniProt P48736); test: HTRF assay, p120γ; format: biochemical; settings: PI3Kγ; read-out: PI3Kγ HTRF IC50 Inhibition Designation
T2 construct: purchased BPS Bioscience 40625
Method in brief: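 End-point competition-binding HTRF with 1-4 nM enzyme and 10 μM di-C8-PIP2, pre-incubated with compound 30 min at 25° C, then 50 μM ATP for 15-30 min at 25° C. HTRF ratio (665/620 nm) gave % inhibition; IC50 from variable-slope log-dose fit.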

recombinant human cIAP-1 = biological target: T3, recombinant human cIAP-1 (Homo sapiens, UniProt Q13490); test: Fluorescence polarization competition binding assay, cIAP-1; settings: c-IAP-1, 3 h
T3 construct: purchased R&D Systems 818-IA
Method: (§3) Homogeneous, Fluorescence Polarization, Competition Binding Assay Protocol for Affinity Assessment of Compound Binding to XIAP, cIAP-1 and ML-IAPβ BIR3 Domains
(§4) 1× stocks of recombinant human XIAP; BIR3 domain (895-XB), recombinant human cIAP-1 (818-IA) or recombinant human ML-IAPβ (818-IA) from R&D Systems and Fluorescence Polarization (FP) assay tracer (Atto-647 tagged IAP inhibitor probe compound) were prepared in assay buffer consisting of 25 mM Tris-HCL, pH 7.5 (Sigma), 10 mM […] (Sigma), 1 mM DTT (Fluka) and 0.005% TritonX-100 (Pierce). While IAP protein and tracer equilibrated at ambient temp in the dark (30-60 min), 100× stocks of test compound were prepared in 50% DMSO:H2O, serially diluted and spotted (0.5 µL/well) in duplicate wells of a 384-well, flat bottom, polypropylene, black assay plate (Greiner #781209). […] Competition binding between test compounds and assay tracer was initiated by the addition of 50 µL/well of pre-equilibrated IAP protein and assay tracer. Displacement of the assay tracer was measured in a Synergy plate reader from BioTek (Winooski, Vt.) at λex620/λem680 through a 660 nm half-sized dicroich mirror and S/P polarizing filters every 30 min for 3 hr. (See Huang, X., Journal of Biomolecular Screening 8, 2003). The resulting compound dose response data were fit to a one-site binding Ki model in GraphPad Prism from GraphPad Software (San Diego, Calif.).

[1] = biological target: T4, recombinant human ML-IAPβ (Homo sapiens, UniProt Q96CA5); test: Fluorescence polarization competition binding assay, ML-IAPβ; settings: ML-IAP, 2 h
T4 construct: purchased R&D Systems 818-IA
T4 sequence (Q96CA5 1-280 isoform Q96CA5-2): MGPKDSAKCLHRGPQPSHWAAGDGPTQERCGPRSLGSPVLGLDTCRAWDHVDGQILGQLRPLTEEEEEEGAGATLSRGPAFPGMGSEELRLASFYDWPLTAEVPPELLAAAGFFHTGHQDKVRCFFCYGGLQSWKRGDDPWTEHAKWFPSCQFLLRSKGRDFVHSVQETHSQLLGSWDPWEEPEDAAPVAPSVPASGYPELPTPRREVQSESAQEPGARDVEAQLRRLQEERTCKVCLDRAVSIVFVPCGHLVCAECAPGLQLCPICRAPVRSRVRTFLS
Method: as §3, §4

PI3Kγ = PI3Kγ (Homo sapiens, UniProt P48736); test: MALDI MS of intact PI3Kγ incubated with compound; format: binding; settings: 1 hr, 10-fold excess, 37° C.
Method: Intact PI3Kγ was incubated for 1 hr at a 10-fold excess of compound XXII-33 to protein at 37° C. 5 μL aliquots of the samples were diluted with 10 μL of 0.1% TFA prior to micro C4 Ziptipping directly onto the MALDI target plate using sinapinic acid as the desorption matrix (10 mg/mL in 0.1% TFA:Acetonitrile 50:50).

p110β/p85α (PI3Kβ) = biological target: T5, p110β/p85α (PI3Kβ) (Homo sapiens, UniProt P42338); test: HTRF assay, p110β/p85α; format: biochemical; settings: read-out: PI3Kβ HTRF IC50 Inhibition Designation
T5 construct: purchased Millipore 14-603
Method: as §1, §2

[2] = biological target: T6, recombinant human XIAP; BIR3 domain (Homo sapiens, UniProt P98170); test: Fluorescence polarization competition binding assay, XIAP BIR3 domain
T6 construct: recombinant human XIAP; BIR3 domain (895-XB); purchased R&D Systems 895-XB
Method: as §3, §4

XIAP = biological target: T7, XIAP (Homo sapiens, UniProt P98170); test: MALDI mass spectrometric analysis of intact XIAP incubated with compound; format: binding; settings: 18 hr, 10-fold excess of compound to protein
T7 construct: recombinant human XIAP; BIR3 domain (895-XB)
Method: Intact XIAP was incubated for 18 hr at a 10-fold excess of VII-1 to protein. 3ul aliquots of the samples were diluted with 10 ul of 0.1% TFA prior to micro C4 ZipTipping directly onto the MALDI target using Sinapinic acid as the desorption matrix (10 mg/mL in 0.1% TFA:Acetonitrile 50:50).
Intact XIAP was incubated for 18 hr at a 10-fold excess of VII-21 to protein. 3 ul aliquots of the samples were diluted with 10 ul of 0.1% TFA prior to micro C4 ZipTipping directly onto the MALDI target using Sinapinic acid as the desorption matrix (10 mg/mL in 0.1% TFA:Acetonitrile 50:50).

NS3/4A C159S = biological target: T8, NS3/4A C159S (Hepatitis C virus genotype 1b, UniProt Q9WMX2, C1185S); test: Lysine modification using biotinylated covalent probe in cell lysate; format: binding, HCV; settings: FIG. 10, 1 μM probe, 1h
T8 construct: expressed in transfected cells
From the text: The pCI-Neo-FLAG-NS3/4a-WT plasmid was constructed by amplifying the NS3 and 4a sequence from the pFK-I389-luc-ubi-neo-NS3-3′ET vector using Accuprime Pfx (Invitrogen) according to manufacturer's instructions and with primers that added an NheI site and FLAG epitope tag to the 5′ end and an XbaI site to the 3′ end.
The resulting PCR product was then digested with NheI and XbaI and ligated into the same sites of the pCI-Neo vector (Invitrogen). The WT construct was then used as a template for site-directed mutagenesis using the Quickchange II Site-Directed Mutagenesis kit […] and primers containing the K136R or C159S mutations (below).
Lysates were treated with 1 μM of biotinylated covalent probe, XVI-27, for 1h and immunoprecipitated with anti-NS3 antibody (mouse). Immunoblots were probed with streptavidin and anti-NS3 antibody (goat). Successful modification by the covalent probe was assessed and quantified relative to WT NS3.

T1 sequence (P42336 whole entry): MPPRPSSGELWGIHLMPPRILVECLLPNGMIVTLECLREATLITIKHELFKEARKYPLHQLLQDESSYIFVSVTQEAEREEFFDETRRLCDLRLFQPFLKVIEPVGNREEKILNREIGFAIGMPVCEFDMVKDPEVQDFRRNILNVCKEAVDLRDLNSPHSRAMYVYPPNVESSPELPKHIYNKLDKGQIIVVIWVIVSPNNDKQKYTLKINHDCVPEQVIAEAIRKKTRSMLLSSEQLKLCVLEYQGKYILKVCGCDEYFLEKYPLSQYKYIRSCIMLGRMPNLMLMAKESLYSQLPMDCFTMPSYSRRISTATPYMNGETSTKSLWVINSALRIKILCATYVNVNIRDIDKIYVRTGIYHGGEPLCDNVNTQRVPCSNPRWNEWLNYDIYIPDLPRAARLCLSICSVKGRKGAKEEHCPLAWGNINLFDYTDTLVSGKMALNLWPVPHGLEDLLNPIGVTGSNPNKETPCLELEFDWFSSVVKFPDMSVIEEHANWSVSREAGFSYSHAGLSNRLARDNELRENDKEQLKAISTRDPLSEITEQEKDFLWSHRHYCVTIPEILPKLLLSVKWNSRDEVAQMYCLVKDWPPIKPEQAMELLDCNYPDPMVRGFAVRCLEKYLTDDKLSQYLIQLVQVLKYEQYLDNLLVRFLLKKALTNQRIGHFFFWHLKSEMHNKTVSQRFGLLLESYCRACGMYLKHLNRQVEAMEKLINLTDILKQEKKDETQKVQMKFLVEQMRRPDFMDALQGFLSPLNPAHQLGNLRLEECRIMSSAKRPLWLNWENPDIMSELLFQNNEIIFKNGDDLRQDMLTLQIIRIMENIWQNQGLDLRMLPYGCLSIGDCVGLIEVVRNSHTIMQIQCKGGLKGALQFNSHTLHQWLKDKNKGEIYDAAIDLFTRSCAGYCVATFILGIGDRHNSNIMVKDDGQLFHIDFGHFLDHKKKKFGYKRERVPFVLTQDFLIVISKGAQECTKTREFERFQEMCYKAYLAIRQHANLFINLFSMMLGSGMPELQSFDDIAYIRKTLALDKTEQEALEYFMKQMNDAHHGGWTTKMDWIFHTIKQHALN
T1 sequence (P27986 whole entry partner): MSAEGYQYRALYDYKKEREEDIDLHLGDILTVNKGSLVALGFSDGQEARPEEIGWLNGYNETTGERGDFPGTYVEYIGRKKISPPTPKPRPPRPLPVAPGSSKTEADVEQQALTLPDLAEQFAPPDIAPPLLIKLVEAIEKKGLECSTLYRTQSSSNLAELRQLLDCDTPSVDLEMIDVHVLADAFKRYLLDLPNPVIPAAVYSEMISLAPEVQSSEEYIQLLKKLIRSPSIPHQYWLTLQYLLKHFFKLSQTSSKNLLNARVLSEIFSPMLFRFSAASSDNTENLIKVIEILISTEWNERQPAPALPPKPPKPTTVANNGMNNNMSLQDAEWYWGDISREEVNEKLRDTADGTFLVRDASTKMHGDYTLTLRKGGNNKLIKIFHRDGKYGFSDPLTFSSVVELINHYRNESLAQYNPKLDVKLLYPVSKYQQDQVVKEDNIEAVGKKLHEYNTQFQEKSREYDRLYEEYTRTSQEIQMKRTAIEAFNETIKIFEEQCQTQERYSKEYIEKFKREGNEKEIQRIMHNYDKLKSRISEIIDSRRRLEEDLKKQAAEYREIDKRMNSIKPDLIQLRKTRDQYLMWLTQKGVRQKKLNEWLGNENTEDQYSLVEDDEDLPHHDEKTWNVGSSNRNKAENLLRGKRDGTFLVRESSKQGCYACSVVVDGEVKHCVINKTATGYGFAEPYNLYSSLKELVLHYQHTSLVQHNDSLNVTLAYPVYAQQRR
T3 sequence (Q13490 whole entry): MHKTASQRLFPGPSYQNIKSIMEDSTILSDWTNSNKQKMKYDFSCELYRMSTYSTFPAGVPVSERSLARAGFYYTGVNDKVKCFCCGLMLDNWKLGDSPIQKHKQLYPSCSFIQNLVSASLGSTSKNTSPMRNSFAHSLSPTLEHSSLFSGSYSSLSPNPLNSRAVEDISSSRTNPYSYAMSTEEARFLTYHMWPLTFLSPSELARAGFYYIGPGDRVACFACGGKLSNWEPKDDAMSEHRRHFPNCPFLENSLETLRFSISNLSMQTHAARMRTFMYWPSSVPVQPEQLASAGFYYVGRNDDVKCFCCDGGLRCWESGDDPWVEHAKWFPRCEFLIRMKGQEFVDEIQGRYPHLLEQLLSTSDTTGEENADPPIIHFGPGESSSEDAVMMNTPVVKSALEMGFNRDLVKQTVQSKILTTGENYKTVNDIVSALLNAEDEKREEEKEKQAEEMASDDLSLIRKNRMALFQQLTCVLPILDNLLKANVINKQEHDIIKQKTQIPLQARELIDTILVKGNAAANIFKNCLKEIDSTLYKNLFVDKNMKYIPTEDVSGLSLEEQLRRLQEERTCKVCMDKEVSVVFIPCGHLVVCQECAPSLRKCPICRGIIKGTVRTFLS
T2 sequence (P48736 whole entry): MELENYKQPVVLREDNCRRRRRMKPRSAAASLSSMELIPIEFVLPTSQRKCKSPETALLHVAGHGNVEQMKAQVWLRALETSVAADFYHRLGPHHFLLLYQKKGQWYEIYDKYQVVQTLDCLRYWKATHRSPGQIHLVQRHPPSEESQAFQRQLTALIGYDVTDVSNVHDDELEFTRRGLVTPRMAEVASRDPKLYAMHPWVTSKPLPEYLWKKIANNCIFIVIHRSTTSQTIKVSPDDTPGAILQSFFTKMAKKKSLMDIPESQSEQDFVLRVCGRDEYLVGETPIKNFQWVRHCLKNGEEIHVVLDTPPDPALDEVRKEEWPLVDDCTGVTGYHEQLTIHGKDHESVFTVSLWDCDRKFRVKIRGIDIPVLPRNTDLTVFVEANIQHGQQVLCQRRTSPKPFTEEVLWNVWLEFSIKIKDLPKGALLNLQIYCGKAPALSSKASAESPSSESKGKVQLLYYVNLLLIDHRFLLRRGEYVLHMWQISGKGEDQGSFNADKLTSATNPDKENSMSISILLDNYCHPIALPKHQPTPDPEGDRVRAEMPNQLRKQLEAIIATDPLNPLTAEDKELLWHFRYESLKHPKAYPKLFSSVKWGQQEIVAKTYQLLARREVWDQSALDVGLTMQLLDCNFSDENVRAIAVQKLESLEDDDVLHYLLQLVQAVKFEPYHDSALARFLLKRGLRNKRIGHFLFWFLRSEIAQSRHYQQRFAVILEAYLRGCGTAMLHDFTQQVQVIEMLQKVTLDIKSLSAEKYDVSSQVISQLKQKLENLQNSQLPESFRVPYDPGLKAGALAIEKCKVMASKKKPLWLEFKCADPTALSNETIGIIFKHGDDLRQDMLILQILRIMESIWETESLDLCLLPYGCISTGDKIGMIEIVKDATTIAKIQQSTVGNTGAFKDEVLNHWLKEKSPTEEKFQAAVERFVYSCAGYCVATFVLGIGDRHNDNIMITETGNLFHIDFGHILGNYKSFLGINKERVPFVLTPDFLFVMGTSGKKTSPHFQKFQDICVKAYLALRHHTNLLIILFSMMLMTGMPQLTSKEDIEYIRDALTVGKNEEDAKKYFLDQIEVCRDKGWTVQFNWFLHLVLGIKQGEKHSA
Sequence of PI3Kγ (P48736 whole entry): as above
T7 sequence (P98170 252-356 limits assumed): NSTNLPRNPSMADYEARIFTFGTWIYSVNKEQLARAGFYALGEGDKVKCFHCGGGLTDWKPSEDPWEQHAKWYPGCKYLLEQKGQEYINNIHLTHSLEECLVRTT
T6 sequence (P98170 252-356 limits assumed): as above
T5 sequence (P42338 whole entry): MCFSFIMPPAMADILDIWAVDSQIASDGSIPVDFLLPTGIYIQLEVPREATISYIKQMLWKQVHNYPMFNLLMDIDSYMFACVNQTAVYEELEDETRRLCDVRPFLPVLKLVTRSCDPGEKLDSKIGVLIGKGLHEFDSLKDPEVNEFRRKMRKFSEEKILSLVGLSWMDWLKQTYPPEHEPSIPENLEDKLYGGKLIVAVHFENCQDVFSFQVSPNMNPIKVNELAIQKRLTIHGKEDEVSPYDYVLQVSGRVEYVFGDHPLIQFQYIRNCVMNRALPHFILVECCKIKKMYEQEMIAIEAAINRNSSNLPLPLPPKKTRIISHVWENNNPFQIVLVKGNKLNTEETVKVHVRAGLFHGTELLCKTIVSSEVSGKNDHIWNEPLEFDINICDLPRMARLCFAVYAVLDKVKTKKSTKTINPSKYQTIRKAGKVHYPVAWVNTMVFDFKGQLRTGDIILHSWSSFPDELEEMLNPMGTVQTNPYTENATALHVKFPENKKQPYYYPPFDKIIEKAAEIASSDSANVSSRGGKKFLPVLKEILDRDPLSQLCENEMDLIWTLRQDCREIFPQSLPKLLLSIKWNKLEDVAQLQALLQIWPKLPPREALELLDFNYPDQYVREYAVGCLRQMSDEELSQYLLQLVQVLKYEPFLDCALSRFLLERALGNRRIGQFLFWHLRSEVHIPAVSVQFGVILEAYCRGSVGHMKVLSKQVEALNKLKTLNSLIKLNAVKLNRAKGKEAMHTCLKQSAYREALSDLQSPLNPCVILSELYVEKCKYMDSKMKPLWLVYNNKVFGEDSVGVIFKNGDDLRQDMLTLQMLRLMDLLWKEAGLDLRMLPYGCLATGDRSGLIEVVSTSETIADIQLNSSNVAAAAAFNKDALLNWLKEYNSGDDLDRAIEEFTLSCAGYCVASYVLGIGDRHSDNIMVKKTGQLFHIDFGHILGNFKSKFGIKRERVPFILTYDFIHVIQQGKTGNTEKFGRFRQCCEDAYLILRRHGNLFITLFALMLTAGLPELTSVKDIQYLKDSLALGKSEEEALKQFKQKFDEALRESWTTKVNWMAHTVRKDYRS
T5 sequence (P27986 whole entry partner): as the sequence (P27986 whole entry partner) above

SMILES | IC50 (p110α/p85α (PI3Kα)) | pIC50 (HCT116) | pIC50 (p120γ (PI3Kγ)) | pKi (recombinant human cIAP-1) | pKi [1] | also measured
CN[C@@H](C)C(=O)N[C@H]1CCCC[C@H]2CC[C@@H](C(=O)N[C@@H]3CCCc4c(NC(=O)C5CCC(=O)O5)cccc43)N2C1=O (stereo partly shown) [VII-30] | – | – | – | 7.00 to 8.00 | 7.00 to 8.00 | –
CN[C@@H](C)C(=O)N[C@H]1CCCC[C@H]2CC[C@@H](C(=O)NCc3cccc(C(=O)N4CC5CCC4C(=O)O5)c3)N2C1=O (stereo partly shown) [VII-43] | – | – | – | 5.00 to 6.00 | < 5.00 | –
[2H]C([2H])=C([2H])C(=O)Nc1cccc(CNC(=O)[C@@H]2CC[C@@H]3CCCC[C@H](NC(=O)[C@H](C)NC)C(=O)N32)c1 [VII-16] | – | – | – | 6.00 to 7.00 | 6.00 to 7.00 | –
CN[C@@H](C)C(=O)N[C@H]1CCCC[C@H]2CC[C@@H](C(=O)NCc3cccc(COC(=O)CC(C)=O)c3)N2C1=O [VII-29] | – | – | – | 5.00 to 6.00 | 7.00 to 8.00 | –
C=CC(=O)Nc1cccc(CNC(=O)[C@@H]2CC[C@@H]3CCCC[C@H](NC(=O)[C@H](C)NC)C(=O)N32)c1 [VII-1, (3S,6S,10aS)-N-(3-acrylamidobenzyl)-6-((S)-2-(methylamino)propanamido)-5-oxodecahydropyrrolo[1,2-a]azocine-3-carboxamide] | – | – | – | 6.00 to 7.00 | 6.00 to 7.00 | Ki XIAP [2]: 161 nM; mass shift of XIAP (XIAP): 417 Da; modification of XIAP (XIAP): complete modification
C=C[C@H]1C[C@@]1(NC(=O)[C@@H]1CC(Oc2nccc3cc(OC)ccc23)CN1C(=O)[C@H](CCC(=O)N1C[C@@H]2C[C@H]1C(=O)O2)NC(=O)CCCC(=O)NCCCOCCOCCOCCCNC(=O)CCCC[C@@H]1SC[C@@H]2NC(=O)N[C@@H]21)C(=O)NS(=O)(=O)C1CC1 (stereo partly drawn) [XVI-27, N1-((2S)-1-((2S)-2-((1S,2R)-1-(cyclopropylsulfonylcarbamoyl)-2-vinylcyclopropylcarbamoyl)-4-(6-methoxyisoquinolin-1-yloxy)pyrrolidin-1-yl)-1,5-dioxo-5-((1S,4S)-3-oxo-2-oxa-5-azabicyclo[2.2.1]heptan-5-yl)pentan-2-yl)-N5-(15-oxo-19-((3aS,4S,6aR)-2-oxohexahydro-1H-thieno[3,4-d]imidazol-4-yl)-4,7,10-trioxa-14-azanonadecyl)glutaramide] | – | – | – | – | – | modification by covalent probe (NS3/4A C159S): modifying NS3/4A C159S
C=CC(=O)Nc1cccc(CNC(=O)[C@@H]2CC[C@@H]3CCCC[C@H](NC(=O)[C@H](C)N(C)C(=O)OC(C)(C)C)C(=O)N32)c1 [VII-2] | – | – | – | < 5.00 | < 5.00 | Ki XIAP [2]: > 10,000 nM; Ki (XIAP) Inhibition Designation ([2]; XIAP): E (IC50≥10,000 nM)
C=CS(=O)(=O)Nc1cccc(CNC(=O)[C@@H]2CC[C@@H]3CCCC[C@H](NC(=O)[C@H](C)NC)C(=O)N32)c1 [VII-23] | – | – | – | > 8.00 | 7.00 to 8.00 | –
CN[C@@H](C)C(=O)N[C@H]1CCCC[C@H]2CC[C@@H](C(=O)NCc3cccc(NC(=O)[C@H]4CCC(=O)O4)c3)N2C1=O [VII-21] | – | – | – | 6.00 to 7.00 | 5.00 to 6.00 | mass shift of XIAP (XIAP): 522 Da; modification of XIAP (XIAP): complete modification

Second part, led by results:

IC50 (p110α/p85α (PI3Kα)) | pIC50 (HCT116) | pIC50 (p120γ (PI3Kγ)) | pKi (recombinant human cIAP-1) | pKi [1] | SMILES | also measured
100 to 1000 nM | 7.00 to 8.00 | 6.00 to 7.00 | – | – | CN(Cc1cc2nc(-c3cccc(O)c3)nc(N3CCOCC3)c2s1)C(=O)[C@H]1CCC(=O)O1 [XXII-7] | –
10 to 100 nM | 7.00 to 8.00 | 6.00 to 7.00 | – | – | CC(C)Oc1c(N(C)Cc2cc3nc(-c4cccc(O)c4)nc(N4CCOCC4)c3s2)c(=O)c1=O [XXII-11] | –
10 to 100 nM | 7.00 to 8.00 | 6.00 to 7.00 | – | – | CN(Cc1cc2nc(-c3cccc(O)c3)nc(N3CCOCC3)c2s1)C(=O)[C@@H]1CCC(=O)O1 [XXII-6] | –
– | – | 6.00 to 7.00 | – | – | Nc1ncc(-c2nc(N3CCOCC3)c3sc(CN4CCN(C(=O)C5CC(=O)CC(=O)C5)CC4)cc3n2)cn1 [XXII-33, 5-(4-((2-(2-aminopyrimidin-5-yl)-4-morpholinothieno[3,2-d]pyrimidin-6-yl)methyl)piperazine-1-carbonyl)cyclohexane-1,3-dione] | mass shift of PI3Kγ (PI3Kγ): 492 Da; mass shift of PI3Kγ as percent (PI3Kγ): 90%; modification of PI3Kγ (PI3Kγ): complete modification; pIC50 (p110β/p85α (PI3Kβ)): 6.00 to 7.00
100 to 1000 nM | 5.00 to 6.00 | 6.00 to 7.00 | – | – | CC1(C)Cc2nc(N3CCOc4ccc(-c5ccc(C(=O)N6C[C@@H]7C[C@H]6C(=O)O7)cc5)cc43)sc2C(=O)N1 [XXIII-8, (1S,4S)-5-(4-(4-(6,6-dimethyl-4-oxo-4,5,6,7-tetrahydrothiazolo[5,4-c]pyridin-2-yl)-3,4-dihydro-2H-benzo[b][1,4]oxazin-6-yl)benzoyl)-2-oxa-5-azabicyclo[2.2.1]heptan-3-one] | –
– | 6.00 to 7.00 | 6.00 to 7.00 | – | – | C=CC(=O)N1CCN(CC#Cc2cc3nc(-c4cccc(O)c4)nc(N4CCOCC4)c3s2)CC1 [XXII-3] | –
10 to 100 nM | 6.00 to 7.00 | 6.00 to 7.00 | – | – | O=C1CC[C@H](C(=O)N2CC=C(c3cc4nc(-c5cccc(O)c5)nc(N5CCOCC5)c4s3)CC2)O1 [XXII-2] | –
